According to patent US20060235063A1, “Method of protecting a soybean plant with flutriafol” (priority 2005, published 2006):

Legend:
Asian Rust in Soy Beans = assay: Example 3: greenhouse experiment, flutriafol seed or soil dressing, plants inoculated with rust spores at third trifoliate; assay type: in vivo, Phakopsora pachyrhizi; set-up: average recorded incidence of disease on the third trifoliate: unit not given here
Experimental: Soya seed was treated with a range of flutriafol rates, as presented in Table 3 below (right-hand side). Additionally, flutriafol was applied directly to the soil, at the rates described below (left-hand side). Three replicates where made per treatment. At the third trifoliate stage, seedlings where inoculated with rust spores on the ad- and ab-axial surfaces of the third trifoliate.
Following treatments and inoculations, the inoculated plants where transferred to a climate chamber, watered as necessary and evaluated for the incidence of Asian Rust. The average of the recorded incidence of disease on the third trifoliate is presented below.

[1] = system: Asian Rust (Phakopsora pachyrhizi) in Soy Beans; assay: Example 1: climate chamber test, flutriafol seed or soil dressing, plants inoculated with rust spores at third trifoliate; assay type: in vivo
Experimental: Soy bean seed was treated with a range of flutriafol rates, as presented in Table 1 below (right-hand side). Additionally, flutriafol was applied directly to the soil, at the rates described below (left-hand side). Three replicates were done per treatment. At the third trifoliate stage, seedlings where inoculated with rust spores on the ad- and ab-axial surfaces of the third trifoliate.
Following treatments and inoculations, the inoculated plants were transferred to a climate chamber, watered as necessary and evaluated for the incidence of Asian Rust. The average of the recorded incidence of disease (%) on the third trifoliate is presented below. An untreated control is also provided as comparative data.

soybean = assay: Example 2: field trial, count of emerged seedlings (crop safety); settings: in vivo
Excerpt: (§1) Seed was drilled at 60 kg per hectare in four replicates per treatment. Each replicate consisted of a 6 m row of 100 seeds. With the seed treatments, fertilizer was first applied up to 2 cm below seed depth and then the rows opened to a depth of 3 cm, the seeds sown and the rows closed with soil. In each treatment there were five rows of 6 m length with 45 cm between rows. With the in-furrow treatments, the row was opened using a hoe, and then the appropriate weight amount of Impact 1.5 GR was applied in the row followed directly afterwards with seed placed over the granules. Soil was then placed over the seed to close the row.
(§2) Twenty two days after planting, the number of plants emerged was evaluated by counting the emerged seedlings in each of the central three rows of each plot. Disease assessment was done 61 days after emergence by selecting 20 leaves per plot from the whole plant at random, and estimating the percentage rust coverage (% disease severity).

soybean rust = assay: Example 2: field trial at Formoso do Araguaia, Brazil, percentage rust coverage on leaves; assay type: in vivo
Excerpt: A trial in Brazil at Formoso do Araguaia examined the rust control from nine rates of flutriafol applied as a 1.5% granule in a rate range of 4 to 40 kg formulated product per hectare (60 to 600 g flutriafol active ingredient per hectare), three rates of Vincit 2.5% powder seed dressing at […] formulated product per 100 kg seed (2.25 to 3.75 g flutriafol active ingredient per 100 kg seed) and four rates of Vincit 5% SC suspension concentrate seed dressing at 50 to 150 g formulation per 100 kg seed (1.5 to 4.5 g flutriafol active ingredient per 100 kg seed).
These treatments were compared with an untreated and a commercial standard treatment of Derosal Plus, which is a mixture of carbendazim plus thiram in a suspension concentrate formulation applied to seed at a rate of 200 ml formulation per 100 kg seed (30 g thiram plus 70 g carbendazim) per 100 kg seed. Both the untreated sample and the Derosal Plus treatment are provided below as comparative data.
as §1, §2

Compound: OC(Cn1cncn1)(c1ccc(F)cc1)c1ccccc1F (racemic) [flutriafol, (RS)-2,4′-difluoro-α-(1H-1,2,4-triazol-1-ylmethyl)benzhydryl alcohol]
- disease control (in words) (Asian Rust in Soy Beans; in-furrow treatments using 30 grams flutriafol per hectare or more): Complete disease control
- disease control (in words) (Asian Rust in Soy Beans; in-furrow treatments using just 3 grams flutriafol per hectare): Significant improvements in disease control
- average recorded incidence of disease on the third trifoliate (Asian Rust in Soy Beans; seed treatment 3 ppm, 21DPI): 31
- average recorded incidence of disease on the third trifoliate (Asian Rust in Soy Beans; seed treatment 10 ppm, 21DPI): 35
- average recorded incidence of disease on the third trifoliate (Asian Rust in Soy Beans; seed treatment 30 ppm, 21DPI): 40
- average recorded incidence of disease on the third trifoliate (Asian Rust in Soy Beans; seed treatment 100 ppm, 21DPI): 0
- average recorded incidence of disease on the third trifoliate (Asian Rust in Soy Beans; seed treatment 300 ppm, 21DPI): 0
- average recorded incidence of disease on the third trifoliate (Asian Rust in Soy Beans; seed treatment 1000 ppm, 21DPI): 0
- disease control (in words) (Asian Rust in Soy Beans; seed treatments using 100 ppm flutriafol or more): Complete disease control
- average recorded incidence of disease on the third trifoliate (Asian Rust in Soy Beans; soil treatment 3 g ai/Ha, 28DPI): 18
- average recorded incidence of disease on the third trifoliate (Asian Rust in Soy Beans; soil treatment 10 g ai/Ha, 28DPI): 16
- average recorded incidence of disease on the third trifoliate (Asian Rust in Soy Beans; soil treatment 30 g ai/Ha, 28DPI): 0
- average recorded incidence of disease on the third trifoliate (Asian Rust in Soy Beans; soil treatment 100 g ai/Ha, 28DPI): 0
- average recorded incidence of disease on the third trifoliate (Asian Rust in Soy Beans; soil treatment 300 g ai/Ha, 28DPI): 0
- average recorded incidence of disease on the third trifoliate (Asian Rust in Soy Beans; soil treatment 1000 g ai/Ha, 28DPI): 0
- disease control (in words) ([1]; in-furrow treatments using 30 grams or more flutriafol per hectare): Significant improvements
- average recorded incidence of disease (%) on the third trifoliate ([1]; seed treatment 3 ppm): 47%
- average recorded incidence of disease (%) on the third trifoliate ([1]; seed treatment 10 ppm): 28%
- average recorded incidence of disease (%) on the third trifoliate ([1]; seed treatment 30 ppm): 8%
- average recorded incidence of disease (%) on the third trifoliate ([1]; seed treatment 100 ppm): 1%
- average recorded incidence of disease (%) on the third trifoliate ([1]; seed treatment 300 ppm): 0%
- average recorded incidence of disease (%) on the third trifoliate ([1]; seed treatment 1000 ppm): 0%
- disease control (in words) ([1]; seed treatments using 10 ppm flutriafol or more): Significant improvements
- average recorded incidence of disease (%) on the third trifoliate ([1]; soil application 3 g ai/Ha): 73%
- average recorded incidence of disease (%) on the third trifoliate ([1]; soil application 10 g ai/Ha): 63%
- average recorded incidence of disease (%) on the third trifoliate ([1]; soil application 30 g ai/Ha): 53%
- average recorded incidence of disease (%) on the third trifoliate ([1]; soil application 100 g ai/Ha): 12%
- average recorded incidence of disease (%) on the third trifoliate ([1]; soil application 300 g ai/Ha): 2%
- average recorded incidence of disease (%) on the third trifoliate ([1]; soil application 1000 g ai/Ha): 1%
- effect on plant numbers (in words) (soybean): unaffected
- phytotoxicity (in words) (soybean): phytotoxic
- rust control (in words) (soybean rust; all flutriafol seed treatment rates): reduction in rust
- rust control (in words) (soybean rust; in-furrow, lowest rate of 60 g flutriafol/hectare, 61 days after plant emergence): controlled the rust
- rust control (in words) (soybean rust; in-furrow, rates above 150 g flutriafol/hectare, 61 days after emergence): complete control
